Assay [1] deals with CB1 (Homo sapiens (Human), UniProt P21554). The assay can be described thus: CB1/CB2 Functional Assay (GTPγ[35S]), CB1 membranes. Type of assay: biochemical. As to the method: (§1) A dose response curve was generated at eight concentrations in duplicate on CB1 and CB2 in light of reference agonists. The reference agonists for cannabinoid receptors was CP55,940. See FIGS. 1A, 1B, 2A, 2B, 3A and 3B.
(§2) Membranes (CB1, ES-110-MG or CB2, ES-111-MG) were mixed with GDP (volume:volume) and incubated for at least 15 min on ice. In parallel, GTPγ[^35S] were mixed with the beads (volume:volume) just before starting the reaction. The following reagents were successively added in the wells of an Optiplate: 50 μl of ligand, 20 μl of the membranes:GDP mix, 10 μl of assay buffer for agonist testing and 20 μl of the GTPγ[^35S]: beads mix. The plates were covered with a topseal, shaken on an orbital shaker for 2 min, and then incubated between 30 to 60 min. at room temperature. Then the plates were centrifuged for 10 min at 2000 rpm, incubated at room temperature between 1 to 4 hours and counted for 1 min with a PerkinElmer TopCount reader.

Assay [2] deals with T1, CB2 (Homo sapiens (Human), UniProt P34972). The assay can be described thus: CB1/CB2 Functional Assay (GTPγ[35S]), CB2 membranes. Type of assay: biochemical. As to the method: as §1, §2
T1 sequence (P34972 whole entry): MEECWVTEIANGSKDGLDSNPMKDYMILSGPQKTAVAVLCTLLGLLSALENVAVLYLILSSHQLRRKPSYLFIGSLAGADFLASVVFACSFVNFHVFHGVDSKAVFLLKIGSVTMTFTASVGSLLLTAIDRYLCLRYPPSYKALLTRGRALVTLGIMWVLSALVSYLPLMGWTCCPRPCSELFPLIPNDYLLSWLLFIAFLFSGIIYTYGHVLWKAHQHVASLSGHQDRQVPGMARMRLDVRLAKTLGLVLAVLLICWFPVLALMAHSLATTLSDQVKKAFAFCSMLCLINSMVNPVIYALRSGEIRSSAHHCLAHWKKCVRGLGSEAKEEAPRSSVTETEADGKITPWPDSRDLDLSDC
Assay [3] deals with T1, CB2. The assay can be described thus: Radioligand competition binding, CHO-K1 membranes, [3H]CP 55,940. As to conditions: 1 nM [3H]CP 55,940, read-out: Mean Ki (nM) hCB2. The method, then:
Mukherjee, S., et al., Species Comparison and Pharmacological Characterization of Rat and Human CB2 Cannabinoid Receptors, Eur J Pharmacol, 2004, 505:1-9. […] IC50 were determined by non-linear regression using one site competition equation. The inhibition constants (Ki) were calculated using the Cheng Prusoff equation (Ki=IC50/(1+(L/KD)), where L=concentration of radioligand in the assay, and KD=affinity of the radioligand for the receptor).

Assay [4] has as its system paclitaxel-induced neuropathic pain model. Briefly: animal or person. Type of assay: in vivo, rat. The conditions noted are these: for ED50: Rattus norvegicus, ip. The method, then: Groups of rats received daily i.p. injections of either vehicle or 1.0 mg/kg paclitaxel daily for four consecutive days for a final cumulative dose of 4 mg/kg; using an injection volume of 1 ml/kg. Polomano, R. C., et al., A Painful Peripheral Neuropathy in the Rat Produced by the Chemotherapeutic Drug, Paclitaxel, Pain, 2001, 94:293-304. The vehicle used in our experiments was the same vehicle used clinically for paclitaxel injections and is composed of a mixture of 10% saline and Cremophor EL® and […]. Baseline responses to mechanical stimulation of the hindpaw (see below) were established on day zero and continued daily until the development of neuropathy was confirmed.
Rats were placed in a compartment with a wire mesh bottom and allowed to acclimate for a minimum of 30 min before testing. Mechanical sensitivity was assessed using a series of Von Frey filaments with logarithmic incremental stiffness (0.41, 0.70, 1.20, 2.00, 3.63, 5.50, 8.50, and 15.1 g) (Stoelting, Wood Dale, Ill.) as previously described, and 50% probability withdrawal thresholds were calculated with the up-down method. Chaplan, S. R., et al., Quantitative Assessment of Tactile Allodynia in the Rat Paw, J. Neurosci. Methods, 1994, 53:55-63; Dixon, W., The Up-and-Down Method for Small Samples, J. Am. Stat. Assoc., 1965, 60:967-78. In brief, beginning with the 2.0-g probe, filaments were applied to the plantar surface of a hind paw for 6-8 s, in an ascending or descending order after a negative or positive withdrawal response, respectively. Six consecutive responses from the first change in the response were used to calculate the withdrawal threshold (in grams). In cases where response thresholds fell outside the range of detection, 15.00 and 0.25 g were, respectively, assigned for continuous negative or positive responses to the limit of stimuli. The percent maximal possible effect (% MPE) was calculated as ([postdrug threshold−baseline threshold]/[cutoff threshold (15 g)−baseline threshold])×100.
To determine sensitivity to noxious heat, rats were placed in plexiglass enclosures on a transparent glass surface maintained at 30° C. and allowed to acclimate for 30 min. A thermal testing apparatus, consisting of a heat-emitting projector lamp and an electronic timer, was used. The device was activated after the lamp is placed directly beneath the planter surface of the hindpaw. The paw withdrawal latency in response to the radiant heat was recorded by a digital timer. A cutoff of 30 s was used to prevent potential tissue damage. After the baseline was measured, three groups of naïve rats (n=10) received 1.0, 3.0, or 10 mg/kg of the compound of Example 3 i.p. Response latencies were determined twice for each rat before drug injection and at 5, 10, 15, 30, 45, 60, 90 and 120 min after IP injection. The percent maximal possible effect (% MPE) was calculated as ([postdrug latency−baseline latency]/[cutoff time (30 s)−baseline latency])×100.
Statistical analyses were carried out using BMDP 2007 (Statistical Solutions, Saugus, Mass., USA) and Graph Pad Prism (version 4.03; Graph Pad Software Inc., San Diego, Calif., USA). Data were analyzed using one-way ANOVA, repeated measures ANOVA, or t-test where appropriate. If ANOVA was significant, Tukey-Kramer post hoc analysis was used for multiple group comparison. Area under the curve (AUC) was calculated using the trapezoidal rule. The results are presented as mean±s.e. mean and were considered significant at P<0.05. Analyses of the dose-response curves and statistics were obtained using the pharmacologic software programs of Tallarida and Murray and included calculation of the ED50 values and their 95% confidence intervals (CI). Tallarida, R. J., et al., Manual of Pharmacologic Calculations With Computer Programs, Second ed. New York: Springer-Verlag, 1987.

Read-outs that look alike come from different tables or passages of the source.

The EC50 is the concentration giving half of the maximal effect. A word on the Ki: it is the equilibrium dissociation constant of an inhibitor or competing ligand from its target. Broadly, the ED50 is the midpoint of the dose-response relation.

Chain of CB1 (P21554 whole entry): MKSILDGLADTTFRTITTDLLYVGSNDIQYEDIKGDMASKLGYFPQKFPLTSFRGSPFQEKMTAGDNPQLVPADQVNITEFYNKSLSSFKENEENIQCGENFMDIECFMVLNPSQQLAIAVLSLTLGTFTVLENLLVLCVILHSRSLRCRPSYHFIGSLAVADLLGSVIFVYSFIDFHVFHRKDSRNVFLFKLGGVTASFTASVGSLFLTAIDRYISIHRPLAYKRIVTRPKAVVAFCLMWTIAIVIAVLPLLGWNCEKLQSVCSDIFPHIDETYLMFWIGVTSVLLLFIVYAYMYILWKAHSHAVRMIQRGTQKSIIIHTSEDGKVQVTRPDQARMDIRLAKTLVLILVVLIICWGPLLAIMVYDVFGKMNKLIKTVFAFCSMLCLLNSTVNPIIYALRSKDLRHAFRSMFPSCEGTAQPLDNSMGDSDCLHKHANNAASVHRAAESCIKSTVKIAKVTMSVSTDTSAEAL

With `CC1(Cc2ccccc2)COc2cc(C(=O)N3CCCCC3)ccc21` (stereo not shown) [Example 3, 3-benzyl-3-methyl-2,3-dihydrobenzofuran-6-carboxylic acid-piperidine amide], the “Compound Function” value in assay [1] and in assay [2] was “Agonist” in each case. The “% Activation Average” value in assay [1] (reference agonist CP55,940) came to 22.85%; in assay [2] (reference agonist CP55,940), 87.2%. Also, in assay [2] (read-out: EC50 (nM) for GTP Binding), the EC50 is 160 nM. Also, in assay [3], the Ki was determined as 422 ± 123 nM. Also, the ED50 stood at 13.5 mg/kg in assay [4] (20 min, read-out: ED50 for suppressing thermal hyperalgesia) and 24 mg/kg in assay [4] (read-out: ED50 tactile allodynia (% MPE withdrawal threshold AUC)). For the same compound, the “time of maximal suppression” value in assay [4] (i.p.) came to 20 min. The “effect on paclitaxel-evoked thermal hyperalgesia and mechanical allodynia relative to vehicle” value in assay [4] (i.p., dose-dependent) is listed as “suppressed”.

For the origin of these results see patent US9339486B2, “Heterocyclic modulators of cannabinoid receptors” (THE CLEVELAND CLINIC FOUNDATION, priority 2008, dated 2016).
